The results in this text go back to publication PMC4635504, “Characterization of a bifidobacterial system that utilizes galacto-oligosaccharides” (Microbiology, 2015).

The target of the test is T1, BbrY_0420 (SBP of the ABC transporter) (Bifidobacterium breve, UniProt A0AAX3NJV5).
T1 sequence (A0AAX3NJV5 1-449): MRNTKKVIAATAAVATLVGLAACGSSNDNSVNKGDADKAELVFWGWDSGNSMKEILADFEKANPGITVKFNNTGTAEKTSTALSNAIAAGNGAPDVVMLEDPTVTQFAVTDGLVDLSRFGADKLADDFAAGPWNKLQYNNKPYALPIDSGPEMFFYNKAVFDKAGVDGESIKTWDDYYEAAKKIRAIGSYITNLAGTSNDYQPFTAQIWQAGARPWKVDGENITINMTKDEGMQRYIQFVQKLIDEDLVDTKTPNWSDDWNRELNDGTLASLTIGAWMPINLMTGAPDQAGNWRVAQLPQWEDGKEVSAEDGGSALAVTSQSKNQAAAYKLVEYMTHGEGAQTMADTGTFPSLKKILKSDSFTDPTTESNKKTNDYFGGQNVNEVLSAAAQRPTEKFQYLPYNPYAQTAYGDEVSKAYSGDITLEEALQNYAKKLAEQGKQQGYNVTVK
Particulars: HBS-P+ buffer, 25 °C, one-site binding model.

On to `OC[C@H]1O[C@@H](O[C@@H]2[C@H](O)[C@@H](O)[C@H](O[C@H]3[C@H](O)[C@@H](O)C(O)O[C@@H]3CO)O[C@@H]2CO)[C@H](O)[C@@H](O)[C@H]1O` (stereo partly shown) [4′-GL, 4′-galactosyllactose], for which binding was put at a Kd of 10.4 µM.

The Kd is the equilibrium constant for the complex coming apart.
